In the NIST ThermoML archive (doi:10.1021/je0301794):
“And” between values parts separate entries of the source, which are not always exact repeats. Identical values can stand only once. Numbers after ± are expanded uncertainties.

Experiments:
[1] = Liquid; for mass density: 101.3 kPa; for Normal boiling temperature: Closed cell (Static) method
[2] = xn = mol fraction of the nth substance listed; conditions: 101.3 kPa, Liquid
[3] = excess molar enthalpy (molar enthalpy of mixing); xn = mol fraction of the nth substance listed; conditions: 318.15 K, 101.3 kPa, Liquid

SMILES | mass density ([1]; 298.15 K) | mass density ([1]; 303.15 K) | mass density ([1]; 313.15 K) | mass density ([1]; 318.15 K) | Normal boiling temperature [1] | mass density ([1]; 293.15 K) | further results
CCCCCCCCCC [decane] | 726.2 ± 0.5 kg/m3 | 722.3 ± 0.5 kg/m3 | 714.7 ± 0.5 kg/m3 | 710.9 ± 0.5 kg/m3 | 173.8 ± 0.2 °C |  | 
COC(=O)OC [dimethyl carbonate] | 1063.5 ± 0.6 kg/m3 | 1056.5 ± 0.6 kg/m3 and 1056.6 ± 0.6 kg/m3 | 1043.4 ± 0.5 kg/m3 | 1036.9 ± 0.5 kg/m3 | 90.31 ± 0.2 °C | 1070 ± 0.6 kg/m3 | 
COC(=O)OC [dimethyl carbonate] + CCCCCCCCC |  |  |  |  |  |  | mass density ([2]; 293.15 K, x1 = 1): 1070 ± 0.6 kg/m3; mass density ([2]; 298.15 K, x1 = 1): 1063.5 ± 0.6 kg/m3; mass density ([2]; 303.15 K, x1 = 1): 1056.6 ± 0.6 kg/m3; mass density ([2]; 313.15 K, x1 = 1): 1043.4 ± 0.5 kg/m3; mass density ([2]; 318.15 K, x1 = 1): 1036.9 ± 0.5 kg/m3; excess molar enthalpy ([3]; x1 = 1): 0 ± 0.002 kJ/mol
COC(=O)OC [dimethyl carbonate] + CCCCCCCCCC |  |  |  |  |  |  | mass density ([2]; 298.15 K, x1 = 1): 1063.5 ± 0.6 kg/m3; mass density ([2]; 303.15 K, x1 = 1): 1056.6 ± 0.6 kg/m3; mass density ([2]; 313.15 K, x1 = 1): 1043.4 ± 0.5 kg/m3; mass density ([2]; 318.15 K, x1 = 1): 1036.9 ± 0.5 kg/m3; excess molar enthalpy ([3]; x1 = 1): 0 ± 0.002 kJ/mol
CCCCCCC [heptane] | 679.4 ± 0.5 kg/m3 | 675.3 ± 0.5 kg/m3 | 666.6 ± 0.5 kg/m3 | 661.5 ± 0.5 kg/m3 | 98.03 ± 0.2 °C | 683.6 ± 0.5 kg/m3 | 
CCCCCCC [heptane] + COC(=O)OC |  |  |  |  |  |  | mass density ([2]; 293.15 K, x2 = 0): 683.6 ± 0.5 kg/m3; mass density ([2]; 298.15 K, x2 = 0): 679.4 ± 0.5 kg/m3; mass density ([2]; 303.15 K, x2 = 0): 675.3 ± 0.5 kg/m3; mass density ([2]; 313.15 K, x2 = 0): 666.6 ± 0.5 kg/m3; mass density ([2]; 318.15 K, x2 = 0): 661.5 ± 0.5 kg/m3; excess molar enthalpy ([3]; x2 = 0): 0 ± 0.002 kJ/mol
CCCCCC [hexane] | 654.8 ± 0.5 kg/m3 | 650.4 ± 0.5 kg/m3 | 641.1 ± 0.6 kg/m3 | 636.4 ± 0.6 kg/m3 | 68.78 ± 0.2 °C | 659.3 ± 0.5 kg/m3 | 
CCCCCC [hexane] + COC(=O)OC |  |  |  |  |  |  | mass density ([2]; 293.15 K, x2 = 0): 659.3 ± 0.5 kg/m3; mass density ([2]; 298.15 K, x2 = 0): 654.8 ± 0.5 kg/m3; mass density ([2]; 303.15 K, x2 = 0): 650.4 ± 0.5 kg/m3; mass density ([2]; 313.15 K, x2 = 0): 641.1 ± 0.6 kg/m3; mass density ([2]; 318.15 K, x2 = 0): 636.4 ± 0.6 kg/m3; excess molar enthalpy ([3]; x2 = 0): 0 ± 0.002 kJ/mol
CCCCCCCCC [nonane] | 713.9 ± 0.5 kg/m3 | 710.1 ± 0.5 kg/m3 | 702.2 ± 0.5 kg/m3 | 698.1 ± 0.5 kg/m3 | 150.51 ± 0.2 °C | 717.7 ± 0.5 kg/m3 | 
CCCCCCCC [octane] | 698.5 ± 0.5 kg/m3 | 694.5 ± 0.5 kg/m3 | 686.3 ± 0.5 kg/m3 | 682.1 ± 0.5 kg/m3 | 125.50 ± 0.2 °C | 702.5 ± 0.5 kg/m3 | 
CCCCCCCC [octane] + COC(=O)OC |  |  |  |  |  |  | mass density ([2]; 293.15 K, x2 = 0): 702.5 ± 0.5 kg/m3; mass density ([2]; 298.15 K, x2 = 0): 698.5 ± 0.5 kg/m3; mass density ([2]; 303.15 K, x2 = 0): 694.5 ± 0.5 kg/m3; mass density ([2]; 313.15 K, x2 = 0): 686.3 ± 0.5 kg/m3; mass density ([2]; 318.15 K, x2 = 0): 682.1 ± 0.5 kg/m3; excess molar enthalpy ([3]; x2 = 0): 0 ± 0.002 kJ/mol
